The nature of experiment [1]: Inhibition of trypsin preincubated for 5 mins before addition of substrate measured after 30 mins.
A short description of experiment [2]: Inhibition of chymotrypsin at 45.5 ug/mL preincubated for 5 mins before addition of substrate measured after 30 mins.
A short description of experiment [3]: Inhibition of trypsin at 45.5 ug/mL preincubated for 5 mins before addition of substrate measured after 30 mins.

Converted amounts (≈) assume the structure as drawn. The source made the active and inactive calls. No cut-off for these calls is given here.

As to `CCCC(=O)N[C@@H](CC(=O)O)C(=O)N[C@@H]1C(=O)N[C@@H](CCCNC(=N)N)C(=O)N[C@H]2CC[C@@H](O)N(C2=O)[C@@H](Cc2ccccc2)C(=O)N(C)[C@@H](Cc2ccc(O)cc2)C(=O)N[C@@H]([C@@H](C)CC)C(=O)O[C@@H]1C` [MICROPEPTIN EI992], in experiment [1], the IC50 is 3.8 µg/mL (≈ 3.83 µM). In addition, the result in experiment [2] was inactive.
For `CC[C@H](C)[C@@H]1NC(=O)[C@H](Cc2ccc(O)cc2)N(C)C(=O)[C@H](Cc2ccccc2)N2C(=O)[C@H](CC[C@H]2O)NC(=O)[C@H](CCCNC(=N)N)NC(=O)[C@@H](NC(=O)[C@H](CC(=O)O)NC(C)=O)[C@@H](C)OC1=O` [MICROPEPTIN E1964] the same measures were 4.2 µg/mL (≈ 4.35 µM) and “inactive”.
The compound `CC(C)C[C@@H](NC(=O)[C@@H](O)Cc1ccc(O)cc1)C(=O)N1[C@@H]2C[C@H](O)CC[C@@H]2C[C@H]1C(N)=O` had an inhibition in experiment [3] of 15%.

The term IC50 denotes the concentration at which inhibition is half-maximal. Read a high IC50 as weaker potency in that assay. Usually inhibition stands for the change of the read-out against control, counted positive when it falls.
